{"source": "patent US20130109049A1", "about": "“Method of Establishing a Fungal Nail Infection” (NOVABIOTICS LIMITED, priority 2009, published 2013)", "key": {"[1]": {"test_system": "Trichophyton rubrum strain NCPF0118", "assay": "Ex vivo human nail fragment model, treatment of established infection (cfu recovered)", "assay_type": "cell-based", "conditions": "Experiment 5; fluconazole at approximately 100×MIC100; 14 d and 28 d, daily", "description": "For antifungal efficacy studies with human toe nails, a solution of 50% (w/v) PEG 8000 (Sigma-Aldrich; Cat No P2139) was prepared by autoclaving and then diluting with sterile 50% (w/v) urea solution (Sigma-Aldrich; Cat No 51457). This solution was mixed thoroughly by vortexing and allowed to stabilise at 50° C. for up to 2 h. After stabilisation, the temperature was allowed to drop to below 40° C. and a concentrated, filter-sterilised solution of Novexatin® (NP213), dissolved in deionised water was added. Final concentrations of PEG 8000 of 50% (w/v), urea of 0-20% (w/v) and Novexatin® (NP213) of 0-10% (w/v) were used in the experiments described below.\nOn arrival, the cultures were transferred to a Petri dish containing sterile Sabouraud Dextrose agar (Sigma-Aldrich; Cat No 84088, or equivalent) and grown for up to 7 d at 30° C. The resulting growth was scraped off and re-suspended in Sabouraud's liquid medium (Oxoid; Cat No CM 147, or equivalent) containing […] dimethyl sulfoxide (DMSO) as cryoprotectant to create a culture stock. The fungus was stored in 0.5 ml aliquots in 2 ml screw-capped polypropylene vials (Cryovials) at −80° C. Seven days prior to experimental use, 50 μl of the culture stock was used to inoculate a slope of Potato Dextrose agar (Merck; Cat No VM556130 609, or equivalent), which was incubated at 30° C. for up to 7 d. The surface of the resulting growth was gently perturbed in 3 ml of sterile distilled/deionised water. After filtration through 2 layers of sterile surgical gauze to remove debris and larger clumps of biomass, the absorbance of the resultant spore suspension was measured at 530 nm, then adjusted to the 0.5 MacFarland standard (OD approx. 0.15)^2.\nHuman toe nails were obtained from a podiatrist in Aberdeen following a successful application to the Grampian Local Research Ethics Committee. […] Large toe nails were cut into 4 pieces, each approximately 1 cm^2 in area, using nail clippers. Nails of normal thickness (≦2 mm) were chosen. The 4 fragments cut from each single nail were placed in quadrants marked on Petri-dishes containing phosphate buffered saline rendered solid with 1.2% (w/v) Technical Agar No. 3 (Oxoid; Cat No LP0013, or equivalent), subsequently referred to as PBS agar. The nail fragments were of irregular shape, so to ensure that each nail received the appropriate amount of the treatment solutions, the surface area was measured by photographing the nails over graph paper and determining the number of 1mm^2 squares covered by each nail. The thickness of the nails was measured with a micrometer and nails distributed among treatment groups, to avoid nail thickness providing an additional experimental variable.\nTwenty four nail fragments from 6 whole large toenails were each inoculated with 10 μl of a spore suspension of T. rubrum NCPF0118 which was prepared as described above. The inoculum was applied to the ventral side of the nail (i.e. the side next to the skin in situ). The nails were incubated for 7 d at 30° C. to allow the fungus to infect the nail tissue. After this pre-incubation period, 12 of the fragments were assigned to each of 2 different treatment protocols, involving daily treatment with 2 different vehicle solutions, each containing a control and 3 different concentrations of Novexatin® (NP213). These vehicle solutions were: 50% (w/v) PEG 8000, and 50% (w/v) PEG 8000 plus 20% (w/v) urea. The concentrations of Novexatin® (NP213) studied were 0%, 1%, 5% and 10% (w/v). The solutions were applied at a volume of 10 μl/cm^2, corrected for the surface area of the different nail fragments as described above. The applied solution was spread over the dorsal side of the nail, to mimic the intended clinical treatment and the ventral side of the nail rested on the agar surface. Each time the nails were treated, they were transferred to a new sterile Petri dish containing PBS agar to minimise any build-up of fungal growth on the agar. Nail fragments were treated daily for 28 days. […]"}, "[2]": {"test_system": "T. rubrum NCPF0118", "assay": "In vitro MIC100 testing", "assay_type": "cell-based, Trichophyton rubrum", "conditions": "Trichophyton rubrum; versus T. rubrum NCPF0118 in vitro; read-out: concentration equal to 100× the MIC100"}, "[3]": {"test_system": "Candida", "assay": "Ex vivo human nail fragment model, treatment of Candida infection", "assay_type": "cell-based", "excerpt": "Trichophyton rubrum strain NCPF0118 was obtained from the National Collection of Pathogenic Fungi, Bristol, UK. Clinical isolates of T. rubrum DM2006 1661, T. rubrum DM2006 1358, T. mentagrophytes DM2006 1503, T. mentagrophytes DM2006 1498 were isolated from patients suffering a range of tinea infections and were purchased from Professor Michel Monod (Service de Dermatologie, Université de Lausanne, Switzerland). Clinical isolates of Candida samples were also obtained from patients suffering from Candidal infection.\nThe procedure was carried out as described for Example 1 above with modifications to the vehicle, and fungal strains used. Each nail was inoculated with 10 μl of a spore suspension of Candida. Following inoculation the nails were treated with 10% (w/v) Novexatin® (NP213) in a vehicle solution of 50% (w/v) PEG 8000 plus 20% (w/v) urea; 10% (w/v) NP339 in a vehicle solution of 50% (w/v) PEG 8000 plus 20% (w/v) urea; 10% (w/v) NP339 in a vehicle solution of water; a control solution of 50% (w/v) PEG 8000 plus 20% (w/v) urea; a control solution of water; a solution of 16 μg/ml Itraconazole® and 1.6% (w/v) DMSO in a vehicle solution of water and a control solution of 1.6% (w/v) DMSO. As for Experiment 1 above, nail fragments were treated daily for up to 28 days. […]\nAt the end of the treatment period, the nail fragments were placed in sterile 2 ml microcentrifuge tubes containing 450 μl of a suspension broth consisting of Sabouraud's Liquid Medium, pH 5.6, containing approximately 100 mg of sterile zirconia beads (0.5 mm diameter). […] Colonies were counted on dishes that contained between 20 and 200 colonies in total, and the total number of cfu present in each sample was calculated. […] The counts were corrected for the surface area of the nails studied to give cfu/cm^2, transformed to log10 and means and standard errors of the mean were calculated using GraphPad Prism 4 (GraphPad, San Diego, Calif.). […] When very low numbers of colonies were detected, as in Experiment 3, the calculated cfu values are shown in order to indicate trends."}}, "note": "Non-standard residues stand in square brackets, D forms with d. No end group written: not given here.", "data": [{"compound": "OC(Cn1cncn1)(Cn1cncn1)c1ccc(F)cc1F", "note": "[fluconazole, 2-(2,4-difluorophenyl)-1,3-bis(1H-1,2,4-triazol-1-yl)propan-2-ol, reference compound]", "values": [{"measurement": "outcome of treatment", "setting": "[1]", "result": "unsuccessful"}, {"measurement": "MIC", "setting": "[2]", "result": 360, "unit": "µg/mL"}]}, {"compound": "dRdRdRdRdRdRdRdRdRdRdRdRdR ([dR][dR][dR][dR][dR][dR][dR][dR][dR][dR][dR][dR][dR]) [NP339]", "values": [{"measurement": "recoverable fungal growth after treatment", "setting": "[3]; Experiments 6 and 7, 10% (w/v), 14 d or 28 d, daily", "result": "no recoverable fungal growth"}]}, {"compound": "CN(C/C=C/C#CC(C)(C)C)Cc1cccc2ccccc12", "note": "[Terbinafine®, [(2E)-6,6-dimethylhept-2-en-4-yn-1-yl](methyl)(naphthalen-1-ylmethyl)amine, reference compound]", "values": [{"measurement": "outcome of treatment", "setting": "[3]; Experiment 7, 10 μg/ml, 14 d and 28 d", "result": "unsuccessful"}]}]}
